This note sets out measurements from patent US20250144049A1, “METHODS, COMPOSITIONS, AND USES RELATED TO THE TREATMENT AND PREVENTION OF LEIGH SYNDROME” (Stealth BioTherapeutics Inc., priority 2023, published 2025).

A short description of series [1]: Pharmacokinetics of Compound 3 after repeated (5 days) subcutaneous dosing. It counts as in vivo. The procedure: The volume of each dose delivered (mL/kg) was based on each individual animal's body weight. • This was a multiple dose terminal study dosed once per day over 5 days. Rats were taken down following their 5th and final dose. • Doses were administered in accordance with test facility standard operating procedures.
• Terminal blood samples were collected via cardiac puncture following inhalation anesthesia in accordance with test facility standard operating procedures. • Blood samples were collected into tubes with appropriate anticoagulant. Tubes were stored on wet ice until processed to plasma by centrifugation (3500 rpm at 5° C. for 10 minutes) within 20 minutes of collection. Sample aliquots of 100 μL were transferred into individual uniquely labeled matrix tubes and stored at nominal −80° C. until transferred to analytical chemistry for analysis. • Immediately following each terminal blood collection for all groups, animals were sacrificed and perfused with cold PBS. The following tissues were collected: heart and brain, in accordance with Table 4. • Plasma and tissue samples were processed for analysis by LC/MS/MS to determine the amounts/concentrations reported in the Figures.

Series [2] relates to Healthy (GM08402) fibroblasts. The series can be described thus: RSL3 cytoprotection assay, healthy fibroblasts. The note with it: 1 μM RSL3, 4 hours, FIG. 8. Type of series: cell-based, human. The protocol: (§1) Patient fibroblasts were acquired from Coriell Institute for Medical Research (Camden, NJ, USA). GM03672 is an untransformed fibroblast cell line from a Leigh syndrome patient carrying an unknown mutation. GM08402 is an untransformed fibroblast from an apparently healthy individual. Cells were cultured at 37° C. at 5% CO2 in Eagle's Minimum Essential Medium (MEM, Corning), which was supplemented with Earle's salts and non-essential amino acids, 15% qualified fetal bovine serum, and 1% penicillin/streptomycin ([…]) to yield “Complete MEM.”
(§2) To initiate the RSL3 cytoprotection experiment, Healthy (GM08402) and Leigh syndrome (GM03672) fibroblasts were resuspended in Complete MEM. Cells were seeded at 10,000 cells per well in a clear, tissue cultured-treated, 96-well plate and incubated at 37° C. overnight. Following the incubation, supernatant was manually aspirated, taking care not to disrupt cells. […]. Luminescence units were quantified by GEN5 software on a BioTek SYNERGY neo2 plate reader (LUM filter).
(§3) RSL3 is an inhibitor of the enzyme glutathione peroxidase 4 (GPX4), which decreases lipid peroxides. RSL3 inhibition of GPX4 induces ferroptosis through iron-dependent accumulation of lipid ROS. In this assay, Healthy or Leigh fibroblasts were treated for 4 hours with RSL3 to induce ferroptosis or left untreated. Endogenous ATP levels were measured as an indicator of cellular viability using a commercially available kit (CellTiter-Glo® 2.0 Cell Viability Assay (Promega)).
(§4) […]. […] Briefly, ferroptosis was induced with 1 μM RSL3 in healthy fibroblast cells and 375 nM RSL3 in fibroblasts from a patient with Leigh syndrome.
(§5) A preliminary experiment was performed to determine the effect of RSL3 injury on the fibroblasts of a healthy individual (cell line: GM08402) and the fibroblasts of a patient diagnosed with Leigh syndrome (cell line: GM03672).

For series [3], the system named is Leigh syndrome (GM03672) fibroblasts. The series can be described thus: RSL3 cytoprotection assay, Leigh fibroblasts. Type of series: cell-based, human. The note with it: RSL3, 4 hours, FIG. 9. The procedure: as §1, §2, §3, §4, §5
Series [4] concerns Ndufs4-KO mouse model of Leigh syndrome. The series can be described thus: Biomarker evaluation study in Ndufs4-KO mouse model of Leigh syndrome. Type of series: in vivo. The note with it: Ndufs4-KO mice. The protocol: Study design. A biomarker evaluation study was performed to test Compound 4 in a mouse model of Leigh syndrome (B6.129S4-Ndufs4^tm1.1Rpa/J; JAX Stock #027058). All studies were performed under the approved IACUC protocol at Jackson Laboratories Bar Harbor ME. Three groups of mice were included in this study: (1) wild-type (WT) C57BL/6J mice (n=8), each receiving 20 mg/kg Compound 4 subcutaneously once per day starting at postnatal age 21 days (P21); (2) Ndufs4-KO mice (homozygous knock outs (“HOM”)) (“HOM Veh”) (n=8), each receiving vehicle (5% Kolliphor-ELP in 1×PBS at a dosage of 10 mL/kg/day) subcutaneously once per day starting at P21; and (3) Ndufs4-KO mice (“HOM Comp. 4, 20 mg/kg”) (n=8), each receiving 20 mg/kg Compound 4 subcutaneously per day starting at P21. From the age of P30, body weight and body temperature was measured daily. At the age of P30 and P40 animals were made to perform a forced exercise on an inclining treadmill for up to 15 minutes or reaching exhaustion whichever happened first. Retro-orbital blood collection (for plasma) was performed after each exercise session for L-Lactic acid level analysis using an enzymatic reaction (biochemical) method with colorimetric read out. The mice were sacrificed and necropsied at P45 or upon reaching a humane endpoint as determined by body conditioning and neurological scoring method developed by Jackson Laboratory for this animal model. Terminal plasma was collected via cardiocentesis post-euthanasia for mitokine analysis (GDF-15 and FGF-21) using an ELISA kit (Abcam: ab216947, ab212160). The manufacturer protocol was followed to generate a standard curve. Plasma was diluted 1:5 in phosphate buffered saline for the ELISA.
Statistical analysis. Kaplan Meier plot followed by chi squared test & two-way ANOVA followed by Dunnett's multiple comparisons test were performed using GraphPad Prism version 10.0.0, GraphPad Software (Boston, Massachusetts) (www.graphpad.com).

Where [5] appears, read: 20 mg/kg SC daily, terminal plasma, FIG. 24C.

As to `CC1=C(C)C(=O)C(CC[C@@](C)(O)COCCC[Si](C)(C)C)=C(C)C1=O` [Compound 3], the “uptake to plasma and clearance rate, mouse versus rat” value in series [1] (20 mg/kg SC mouse vs 10 mg/kg SC rat (60 mg/m^2), 30 minutes to 24 hours, FIG. 17) was “roughly equivalent”. Besides, the tolerability result in series [1] (rat, 10 mg/kg SC, 5 daily doses) is given as “well tolerated”. The “anti-ferroptosis properties compared among test articles” value was “superior to Compounds 1, 4 and Vatiquinone” in series [2]; “superior to Compounds 1, 4 and Vatiquinone” in series [3].

For the molecule `CC1=C(C)C(=O)C(CC[C@](C)(O)CCCCCCCCC(F)(F)F)=C(C)C1=O` [Compound 4], the survival proportion result in series [4] (20 mg/kg SC daily from P21 until P46, vs vehicle, FIG. 24A) is listed as “improved survival proportion”. Moreover, the “exercise-induced lactic acidosis (plasma lactate)” value in series [4] (20 mg/kg SC daily, forced exercise at P30 and P40, FIG. 24B) is “mitigated exercise-induced lactic acidosis”. The “plasma FGF-21” value in series [4] (setting [5]) is reported as “normalizing trends”. Besides, in series [4] (setting [5]), the “plasma GDF-15” value is listed as “significantly normalized”. For the same molecule, the “anti-ferroptosis properties compared among test articles” value in series [2] and in series [3] was “roughly equivalent” each time.
